Laboratory results from patent US12115147B2, “Formulations and methods related to eye irritation” (Lebrun Labs LLC, priority 2020, dated 2024).
Read-outs that look alike come from different tables or passages of the source.

Legend:
[1] = OPTISAFE in vitro ocular irritation test, original formulation without antioxidants; settings: triplicate assays; for OPTISAFE (no antioxidant) Score AVG: ROS/CL chemicals
Experimental: Surfactants were diluted.
Next a study was conducted to determine if the addition of antioxidants changes the reliability (repeatability) of the test method. After this, a large study determined if antioxidants specifically reduce the false positive rate without impacting the true positive rate and the true negative rate and then all prior test chemicals were rested with antioxidants in triplicate.

[2] = Table 7B; consensus of past application domain study, no antioxidants; predicted GHS class; cited from earlier work
[3] = OS2 (OPTISAFE2), OPTISAFE formulation with antioxidants
[4] = tested on: reconstituted human corneal epithelium; assay: Modified EPIOCULAR test with or without ascorbic acid overlay, MTT viability
Experimental: To include the antioxidant mixture in cell-based assays, the mix can be added to the medium or the test sample. Per the EPIOCULAR protocol by MatTek Corporation, the EpiOcular Assay Medium should be warmed to approximately 37° C. […] The standard operating procedures are listed as follows:
Tissue Preincubation • 1) RhCE tissues (purchased from MatTek Corporation) are equilibrated for about 15 min. • 2) The antioxidant is added to the Assay Medium and used for all steps that follow and/or the antioxidant is added to the test chemical or overlayed over the tissue prior to test chemical exposure. […] The tissues were then incubated at standard culture conditions for 30±2 min. • 3) Antioxidant procedure: The test article used was Styrene (CASRN 100-42-5, Lot No. MKCM4502). […] Modifications Required for Solids • 1) Each solid is tested by applying one leveled volumetric spoonful of material to be tested into tissue insert (approximately 50 mg). and incubated for 6 hours. • 2) Rinsing: At the end of the 6 hours, the test articles are removed by rinsing (as above). • 3) Post-treatment: After rinsing, the tissue inserts are immersed in 5 mL of previously warmed Assay Medium • 4) Recovery: Next, each insert is removed from the Assay Medium, and transferred to a plate containing 1 mL of Medium. The tissues are then incubated for 18 hours under cell culture. Cell Viability Test • 1) After the post-treatment incubation, the MTT viability test is done. • 2) A 1.0 mg/mL MTT solution is prepared and 300 μL of the MTT solution is added to each well of a 24-well plate. each insert is removed from the 6-well plate and placed into the 24-well plate containing 0.3 mL of MTT solution. The plate is then incubated for 3 hours under culture conditions. • 3) After incubation, each insert is removed from the 24-well plate and then transferred to a 24-well plate containing 2.0 mL of isopropanol. […] Alternative Visual Determination of Viability and Irritant Prediction • 1) Since viable cells turn MTT purple, the relative viability of one tissue to the next can be determined by a visual inspection. […]

[5] = pH 6.36

For c1ccc(OP(Oc2ccccc2)Oc2ccccc2)cc1 [Triphenyl phosphite], the “OPTISAFE Score AVG” value ([1]; original formulation without antioxidants) is given as 113.3 ± 2.1, the “OS Cons” value [2] is given as 1 and the “OS2 Cons” value ([3]; Table 7B, majority prediction of the triplicate assays) is given as 1. For the same compound, the “OS2 R1” value ([3]; Table 7B, repeat 1, with antioxidants, predicted GHS class) was 1, the “OS2 R3” value ([3]; Table 7B, repeat 3, with antioxidants, predicted GHS class) was 1 and the “OS2 Score AVG” value ([3]; new formulation with antioxidants at the in vivo concentration, triplicate assays) was 169.0 ± 9.9.

In the case of C=Cc1ccccc1 [Styrene], the “OPTISAFE (no antioxidant) Score AVG” value [1] was 53.5 ± 10.1, the “prediction, Condition 2” value ([4]; ascorbic acid (0.3 mg/ml) in PBS overlay and culture medium) was “nonirritant (TN)” and the “cell killing, Condition 2” value ([4]; ascorbic acid (0.3 mg/ml) in PBS overlay and culture medium, MTT, visual) was “significantly less cell killing”. The “cell killing, Condition 1” value ([4]; no ascorbic acid added, 50 μL, 30 min exposure, MTT, visual) was “extensive cell killing” and the “OS2 (with antioxidant) Score AVG” value [5] was 3.5 ± 0.8.

For C=C(C)C(=O)OCCOCC [2-Ethoxyethyl methacrylate], the “OPTISAFE (no antioxidant) Score AVG” value [1] is given as 97.1 ± 18.2, the “OS Cons” value [2] is given as 1 and the “OS2 (with antioxidant) Score AVG” value [5] is given as 14.5 ± 2.7. The “OS2 Cons” value [5] was 2 and the “OS2 R1” value [5] was 2.

In the case of CCOCCOCC [Ethylene glycol diethyl ether], the “OPTISAFE (no antioxidant) Score AVG” value [1] is given as 25.4 ± 1.8, the “OS Cons” value [2] is given as 2 and the “OS2 (with antioxidant) Score AVG” value [5] is given as 21.6 ± 2.5. For the same compound, the “OS2 Cons” value [5] was 2, the “OS2 R1” value [5] was 2 and the “OS2 R3” value [5] was 2.
